How the values were obtained:
DDY strain male mice = assay: Memory fixation test in mice (passive avoidance learning); type: in vivo; conditions: 5 mice, assessed 24 hours after learning, physiological saline control 47 sec.
Method: The measurement was conducted in accordance with the method described in Experientia 40, 506 (1984) with a slight modification made by the inventors. Several of the compounds of the invention were checked for their ability to enhance long-term memory fixation in the passive avoidance learning method using an apparatus which has an electrifiable grid floor and a refuge platform on one end of the floor. […] One hour after the administration, electric shocks were applied to the mice in a black box so that they would acquire passive avoidance learning.
The results of the test were assessed 24 hours after the learning in terms of the memory fixation acquired in the passive avoidance learning by measuring the residence time (latency) during which the mice stayed on the platform. The results between the test groups which received the test compound and the control group which received physiological saline in place of the test compound were compared.

prolyl endopeptidase = prolyl endopeptidase (Elizabethkingia meningoseptica, UniProt P27028); assay: Anti-prolyl endopeptidase activity (inhibition of digestion of Z-glycyl-prolyl-β-naphthylamide); type: biochemical; conditions: amount for 50% inhibition; 0.0025M Z-glycyl-prolyl-β-naphthylamide (0.25 ml), pH 7.0, 35° C., 10 minutes, absorbance at 410 nm
Method: The method of Yoshimoto and Tsuru [T. Yoshimoto and D. Tsuru, Agric. Biol. Chem., 42, 2417 (1978)] was used to measure the anti-prolyl endopeptidase activities of several compounds of the present invention. A mixture of 0.0025M Z-glycyl-prolyl-β-naphthylamide (0.25 ml), 0.1M phosphate buffer (pH, 7.0; 0.99 ml) and a solution of a particular anti-prolyl endopeptidase compound (0.01 ml) was incubated in a test tube at 37° C. for 3 minutes. Thereafter, 0.1 ml of a solution of prolyl endopeptidase (0.2 U/ml) was added and the mixture was incubated at 35° C. for 10 minutes. After the reaction, 2.0 ml of Triton X-100 in 1M acetate buffer (pH, 4.0) was added to the reaction mixture so that the final concentration of the surfactant might be 10%. The mixture was left at room temperature for 15 minutes and the absorbance (a) at 410 nm was measured.
A sample of a blind test was prepared by using the buffer instead of the anti-prolyl endopeptidase compound and its absorbance (b) was also measured. The percentage of inhibition against prolyl endopeptidase was calculated by the formula: […]
and the amount of a specific compound need to achieve 50% inhibition (IC50) was determined.

Chain of prolyl endopeptidase (P27028 21-705): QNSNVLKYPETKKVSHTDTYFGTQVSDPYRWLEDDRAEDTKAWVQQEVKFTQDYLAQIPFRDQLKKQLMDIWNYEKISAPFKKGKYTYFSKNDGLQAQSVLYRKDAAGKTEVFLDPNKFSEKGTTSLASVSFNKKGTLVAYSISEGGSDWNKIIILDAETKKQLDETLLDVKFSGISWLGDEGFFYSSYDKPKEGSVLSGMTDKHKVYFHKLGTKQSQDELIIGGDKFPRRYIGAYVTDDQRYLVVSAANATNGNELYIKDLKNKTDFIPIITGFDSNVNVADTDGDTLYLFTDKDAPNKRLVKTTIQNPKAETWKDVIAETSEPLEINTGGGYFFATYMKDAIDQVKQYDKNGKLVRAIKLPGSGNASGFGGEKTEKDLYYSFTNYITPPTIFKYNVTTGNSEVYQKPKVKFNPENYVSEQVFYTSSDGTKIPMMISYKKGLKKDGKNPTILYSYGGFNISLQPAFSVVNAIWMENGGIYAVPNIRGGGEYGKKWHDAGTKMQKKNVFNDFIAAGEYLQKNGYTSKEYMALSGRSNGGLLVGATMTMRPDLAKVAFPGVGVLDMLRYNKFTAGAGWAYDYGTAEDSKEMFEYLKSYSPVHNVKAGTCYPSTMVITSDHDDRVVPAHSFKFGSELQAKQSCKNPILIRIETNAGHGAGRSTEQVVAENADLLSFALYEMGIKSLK

IC50 (prolyl endopeptidase) [μg/test tube] | Structure (SMILES) | Latency (DDY strain male mice; 1.0 mg/kg per os) [s] | Latency (DDY strain male mice; 3.0 mg/kg per os) [s] | Latency (DDY strain male mice; 0.3 mg/kg per os) [s]
0.07 | O=C([C@@H]1C[C@@H](O)CN1C(=O)CCCc1ccccc1)N1CCCC1 [SUAM 14432, N-[N-(4-phenylbutanoyl)-trans-4-hydroxy-L-prolyl]pyrrolidine] | 76 | 153 | 
0.01 | COc1ccc(O[C@H]2C[C@@H](C(=O)N3CCCC3)N(C(=O)CCCc3ccccc3)C2)cc1 [SUAM 14441, N-[N-(4-phenylbutanoyl)-cis-4-(4-methoxyphenoxy)-L-prolyl]pyrrolidine] | 101 |  | 
0.008 | COc1ccccc1O[C@H]1C[C@@H](C(=O)N2CCCC2)N(C(=O)CCCc2ccccc2)C1 [SUAM 14467, N-[N-(4-phenylbutanoyl)-cis-4-(2-methoxyphenoxy)-L-prolyl]pyrrolidine] |  |  | 
0.03 | COc1cccc(O[C@H]2C[C@@H](C(=O)N3CCCC3)N(C(=O)CCCc3ccccc3)C2)c1 [SUAM 14468, N-[N-(4-phenylbutanoyl)-cis-4-(3-methoxyphenoxy)-L-prolyl]pyrrolidine] |  |  | 
0.04 | COc1ccc(O[C@H]2C[C@@H](C(=O)N3CCCC3)N(C(=O)OCc3ccccc3)C2)cc1 [SUAM 14491, N-[N-benzyloxycarbonyl-cis-4-(4-methoxyphenoxy)-L-prolyl]pyrrolidine] |  |  | 
0.10 | O=C([C@@H]1C[C@H](O)CN1C(=O)CCCc1ccccc1)N1CCCC1 [SUAM 14496, N-[N-(4-phenylbutanoyl)-cis-4-hydroxy-L-prolyl]pyrrolidine] | 138 | 135 | 147
0.15 | COc1ccc(C(=O)O[C@@H]2C[C@@H](C(=O)N3CCCC3)N(C(=O)CCCc3ccccc3)C2)cc1 [SUAM 14497, N-[N-4-phenylbutanoyl)-trans-4-(4-methoxybenzoyloxy-L-prolyl]pyrrolidine] |  |  | 
0.30 | O=C(O[C@@H]1C[C@@H](C(=O)N2CCCC2)N(C(=O)CCCc2ccccc2)C1)c1ccccc1 [SUAM 14498] |  |  | 
0.20 | O=C(O[C@@H]1C[C@@H](C(=O)N2CCCC2)N(C(=O)CCCc2ccccc2)C1)c1ccc(Cl)cc1 [SUAM 14499, N-[N-(4-phenylbutanoyl)-trans-4-(4-chlorobenzoyloxy)-L-prolyl]pyrrolidine] |  |  | 
0.04 | COc1ccc(C(=O)O[C@H]2C[C@@H](C(=O)N3CCCC3)N(C(=O)CCCc3ccccc3)C2)cc1 [SUAM 14501] |  |  | 
0.06 | O=C(O[C@H]1C[C@@H](C(=O)N2CCCC2)N(C(=O)CCCc2ccccc2)C1)c1ccccc1 [SUAM 14502, N-[N-(4-phenylbutanoyl)-cis-4-benzoyloxy-L-prolyl]pyrrolidine] |  |  | 
0.06 | O=C(O[C@H]1C[C@@H](C(=O)N2CCCC2)N(C(=O)CCCc2ccccc2)C1)c1ccc(Cl)cc1 [SUAM 14503, N-[N-(4-phenylbutanoyl)-cis-4-(4-chlorobenzoyloxy)-L-prolyl]pyrrolidine] |  |  | 
0.02 | O=C([C@@H]1C[C@H](Oc2ccccc2)CN1C(=O)CCCc1ccccc1)N1CCCC1 [SUAM 14504, N-[N-(4-phenylbutanoyl)-cis-4-phenoxy-L-prolyl]pyrrolidine] |  |  | 
0.04 | O=C([C@@H]1C[C@H](Oc2ccc(Cl)cc2)CN1C(=O)CCCc1ccccc1)N1CCCC1 [SUAM 14508, N-[N-(4-phenylbutanoyl)-cis-4-(4-chlorophenoxy)-L-prolyl]pyrrolidine] |  |  | 
0.03 | Cc1ccc(O[C@H]2C[C@@H](C(=O)N3CCCC3)N(C(=O)CCCc3ccccc3)C2)cc1 [SUAM 14509, N-[N-(4-phenylbutanoyl)-cis-4-(4-methylphenoxy)-L-prolyl]pyrrolidine] |  | 95 | 

Structure (SMILES) | IC50 (prolyl endopeptidase) [μg/test tube] | Latency (DDY strain male mice; 1.0 mg/kg per os) [s] | Latency (DDY strain male mice; 3.0 mg/kg per os) [s] | Latency (DDY strain male mice; 0.3 mg/kg per os) [s]
CC(=O)O[C@@H]1C[C@@H](C(=O)N2CCCC2)N(C(=O)CCCc2ccccc2)C1 [SUAM 14506, N-[N-(4-phenylbutanoyl)-trans-4-acetoxy-L-prolyl]pyrrolidine] | 0.03 |  | 64 | 
CC(=O)O[C@H]1C[C@@H](C(=O)N2CCCC2)N(C(=O)CCCc2ccccc2)C1 [SUAM 14507, N-[N-(4-phenylbutanoyl)-cis-4-acetoxy-L-prolyl]pyrrolidine] | 0.10 |  | 53 | 

Source: patent US4810721A, “Pyrrolidineamide derivative having anti-prolyl endopeptidase” (Suntory Limited, priority 1986, dated 1989)
